This note sets out measurements from PubChem BioAssay AID1035470 (Broad Institute, 2014).

Results filed as inconclusive are left out. Active and inactive are the calls of the source.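 How the source made its calls: active means compound lowering the normal-ribosome reporter at least twice as much as the humanized-ribosome reporter, growth loss under a set limit; inconclusive means no clear call, values can overlap the other calls; inactive means the rest.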

This experiment concerns E. coli WT-GFP vs G2058-humanized RFP, fluorescence, 24 h. The experiment can be described thus: E. coli strain growth, wild-type against G2058 humanized RFP mutant – G2058 mutant RFP vs wild-type GFP, cherry-pick, two tests, dose response (AID 1035470).
Setting [1] is: measured here: G2058 humanized mutant RFP growth.
The mark [2] stands for this setting: E. coli WT-GFP vs G2058-humanized RFP mixed culture, total growth OD600, 24 h.

Usually AC50 stands for the midpoint of the concentration-response curve, whichever way the signal moves. Consider `CCN(C(=O)CSc1cc(C)c2ccc(OC)cc2n1)C1CCS(=O)(=O)C1` (stereo not given), for which the AC50 is > 100 µM (inactive). The AC50 under setting [1] came out at 3.93 µM. On to `CS(=O)(=O)c1ccc(C(=O)Nc2nc(-c3ccco3)c(-c3ccco3)s2)cc1`, for which the AC50 was > 100 µM (inactive). This compound also showed an AC50 under setting [2] greater than 100 µM. This compound also came in with a half-maximal activity concentration (AC50) under setting [1] greater than 100 µM. As for `CCCNc1ccc(C(=O)OCC)cc1[N+](=O)[O-]`, the AC50 was > 100 µM (inactive). For the same compound, the AC50 under setting [2] is greater than 100 µM. `COc1ccc(OC)c(NC(=O)CN(C)CC(=O)Nc2ccccc2Br)c1` showed an AC50 under setting [2] greater than 100 µM.

Take `CCc1cc2cc(OC)ccc2nc1SCC(=O)Nc1cc(OC)c(OC)cc1C(=O)O`: the AC50 is > 100 µM (inactive). This compound returned an AC50 under setting [2] greater than 100 µM.

On to `Nc1ccccc1Sc1ccc(C(F)(F)F)cc1[N+](=O)[O-]`, for which the AC50 is > 100 µM (inactive). This compound also gave an AC50 under setting [2] greater than 100 µM. This compound also showed an AC50 under setting [1] greater than 100 µM.

Consider `Fc1cccc(CCN2C(=S)NC[C@@H]2CC2CCCCC2)c1`, for which the AC50 is > 100 µM (inactive). In the case of `CC1(c2ccc3ccccc3c2)NC(=O)N(CC(=O)N2CCN(c3ccccc3O)CC2)C1=O` (stereo not given), the AC50 is > 100 µM (inactive). The compound also displayed an AC50 under setting [2] greater than 100 µM. `CC(C)n1nnnc1C1c2ccccc2C(=O)N1CCOc1ccccc1` (stereo not given): the AC50 is > 100 µM (inactive). On the same count and under the same terms, the result for `O=C(Nc1cccc(O)c1)c1cccc(S(=O)(=O)Nc2cccc(O)c2)c1` reads > 100 µM (inactive). Regarding `Cc1ccc(-c2nc(CN3CCCCC3c3cccc(F)c3)c(C)o2)o1` (stereo not given), the AC50 under setting [2] is greater than 100 µM. For `CN(C)CCCNc1ccc(-c2cc(Nc3cccc(Cl)c3)ncn2)cn1`, the AC50 is > 100 µM (inactive).

Take `CN(C)S(=O)(=O)c1cccc(C(=O)Nc2ccc(C(=O)Nc3cccc(S(N)(=O)=O)c3)cc2)c1`: the AC50 was > 100 µM (inactive). The same measure, in the same setting: to `O=C(NC1CCCC(C(F)(F)F)C1)c1ccc([N+](=O)[O-])o1` (stereo not given) belongs > 100 µM (inactive). Turning to `COc1cc(NC(=O)COC(=O)CC(C)(C)C)c(C)cc1[N+](=O)[O-]`, the AC50 is > 100 µM (inactive). This compound also returned an AC50 under setting [2] greater than 100 µM. With `COc1ccc(-n2c(-c3ccc(C)cc3)nc3ccccc3c2=O)cc1`, the AC50 is > 100 µM (inactive). In the case of `COc1ccc(NC(=O)CSc2nnc(Cc3ccccc3)o2)c(OC)c1`, the AC50 is > 100 µM (inactive). Under setting [2], this compound yielded an AC50 greater than 100 µM. As to `O=C(Nc1ccc(F)c(Cl)c1)C1CC2CCC1C2` (stereo not given), the AC50 was > 100 µM (inactive). With `O=[N+]([O-])c1cncc([N+](=O)[O-])c1Nc1cccc(O)c1`, the AC50 was > 100 µM (inactive). Under setting [2], this compound showed an AC50 greater than 100 µM. Turning to `OC(COc1ccc(Cl)cc1)CN1CCN(c2ccccn2)CC1` (stereo not given), the AC50 was > 100 µM (inactive). In the case of `COc1cc(OC)c(NS(=O)(=O)c2cccc(C(=O)OCC(=O)NCC3CCCO3)c2)cc1Cl` (stereo not given), under setting [2], the AC50 is greater than 100 µM. `CCc1nn2cc(C(=O)c3cc(Cl)ccc3O)cnc2c1-c1ccc(F)cc1`: the AC50 was > 100 µM (inactive). Same read-out and setting: to `COC(=O)c1cccc(CN2C(=O)SC(Nc3ccc(C)cc3)C2=O)c1` (stereo not given) belongs > 100 µM (inactive). Turning to `Nc1ccccc1C#CC(=O)c1ccccc1`, under setting [2], the AC50 was 49 µM.

With `NC(=O)CSc1nc2cc([N+](=O)[O-])ccc2n1-c1cccc(C(F)(F)F)c1`, the AC50 was > 100 µM (inactive). Besides, the half-maximal activity concentration (AC50) under setting [2] was greater than 100 µM. As to `Cc1cccc(-c2ccc([C@H]3[C@@H](CO)N4CCCCN(S(=O)(=O)c5ccccc5C)C[C@H]34)cc2)c1`, under setting [2], the AC50 is greater than 100 µM.

In the case of `COC(=O)c1ccc2nc(-c3cccc(Br)c3)c(Cc3ccsc3)n2c1`, the AC50 is > 100 µM (inactive). The compound also had a concentration at half-maximal activity (AC50) under setting [1] greater than 100 µM. For `CC(C)(C)C1CCC(C(=O)OCC(=O)N2CCN(C(=O)c3ccco3)CC2)CC1` (stereo not given), the AC50 was > 100 µM (inactive). Take `O=C(CC1C(=O)N(c2ccc(Cl)cc2)C(=S)N1CCc1ccncc1)Nc1ccc(F)cc1` (stereo not given): the AC50 was > 100 µM (inactive). Under setting [2], this compound returned an AC50 of 41.8 µM. Consider `Oc1ccc(-c2csc(Nc3ncccn3)n2)cc1`, for which the AC50 under setting [2] was greater than 100 µM and the AC50 under setting [1] is greater than 100 µM. Regarding `CCOC(=O)c1ccc(CC(=O)c2oc3cc(O)ccc3c2C)o1`, the AC50 was > 100 µM (inactive). Regarding `O=C(COC(=O)CCSc1ccc(F)cc1)NCc1ccc(F)cc1`, the AC50 was > 100 µM (inactive). The same compound gave an AC50 under setting [2] greater than 100 µM.

Consider `C[C@@H]1CN([C@@H](C)CO)C(=O)c2cccc(NC(=O)c3nc4ccccc4s3)c2O[C@@H]1CN(C)CC1CC1`, for which, under setting [2], the AC50 was greater than 100 µM. `CCc1ccc(OCC(=O)NCc2ccco2)c(Br)c1`: the AC50 was > 100 µM (inactive). Consider `Cc1cc2nc(SCC(=O)O)nc(C)c2cc1C`, for which the AC50 was > 100 µM (inactive). Under setting [2], this compound showed an AC50 greater than 100 µM.

With `FC(F)(F)c1ccc(Cl)c(-n2c(Cc3cccs3)n[nH]c2=S)c1`, the AC50 was > 100 µM (inactive). Still for that read-out and setting: the result for `C=CCn1c(C)cc(C(=O)COC(=O)CNC(=O)c2ccccc2)c1C` reads > 100 µM (inactive); that for `Cc1cccc(OCCC(=O)Nc2ccc(F)c(F)c2)c1`, > 100 µM (inactive). `CC(=O)c1ccc(OCC(=O)Nc2ccc3c(c2)CCC3)cc1`: the AC50 was > 100 µM (inactive). Further, the half-maximal activity concentration (AC50) under setting [2] was greater than 100 µM. In the case of `CCN(CC)CCN(C(=O)c1ccc2c(c1)OCCO2)c1nc2c(Cl)cccc2s1`, the AC50 was > 100 µM (inactive). On to `Cc1ccc(CNS(=O)(=O)c2ccc3c(c2)NC(=O)CS3)cc1`, for which the AC50 was > 100 µM (inactive). Still for that read-out and setting: to `COc1ccc(NC(=O)Nc2cccc3c2O[C@H](CN(C)S(=O)(=O)c2ccc(Cl)cc2)[C@H](C)CN([C@H](C)CO)C3=O)cc1` belongs > 100 µM (inactive); to `Cc1cc(C(C)(C)C)oc1C(=O)N(CC(=O)NC1CCCC1)c1c(C)cccc1C`, > 100 µM (inactive); to `O=C(Nc1ccc2c(c1)OCO2)c1ccc([N+](=O)[O-])cc1[N+](=O)[O-]`, > 100 µM (inactive).

Regarding `Cn1c(-[n+]2c(-c3ccccc3)cc(-c3ccccc3)cc2-c2ccccc2)nc2c([N+](=O)[O-])cccc21`, the AC50 was > 100 µM (inactive). Consider `COc1cc2c(cc1OC)CN(CC(=O)Nc1ccccc1SC)CC2`, for which the AC50 was > 100 µM (inactive). The AC50 under setting [2] is greater than 100 µM. Under setting [1], this compound came in with a concentration at half-maximal activity (AC50) of 47.2 µM. In the case of `Cc1cc(C)c(S(=O)(=O)NCCOc2ccccc2)c(C)c1-n1cnnn1`, the AC50 is > 100 µM (inactive).

Turning to `COc1cc2[nH]c(=S)nc(NCCc3ccc(C)cc3)c2cc1OC`, the AC50 was > 100 µM (inactive). As for `Cc1ccn2cc(-c3cccc(NC(=O)c4cccs4)c3)nc2c1`, the AC50 was > 100 µM (inactive). The compound further displayed an AC50 under setting [2] greater than 100 µM.

Regarding `Cc1cccc(NC(=O)c2sc3nc(-c4ccccc4)cn3c2C)n1`, the AC50 is > 100 µM (inactive). In addition, the AC50 under setting [2] is greater than 100 µM. With `O=C(O)c1cc(-c2ccc(Cl)s2)nc2ccccc12`, the AC50 was > 100 µM (inactive).

On to `O=C(Nc1cccc2c1CCCC2)c1ccco1`, for which the AC50 was > 100 µM (inactive). In addition, the AC50 under setting [2] is greater than 100 µM. As to `COC(=O)C[C@H]1C[C@@H]2c3cc(NC(=O)Nc4ccc(C(F)(F)F)cc4)ccc3O[C@@H]2[C@H](CO)O1`, the AC50 is > 100 µM (inactive). The same measure, in the same setting: to `O=C(CCCSc1nc2ccccc2s1)NCc1ccc2c(c1)OCO2` belongs > 100 µM (inactive). `Nc1ccccc1Sc1c[nH]c2ccccc12`: the AC50 is > 100 µM (inactive). The compound also had an AC50 under setting [2] greater than 100 µM. As to `O=C(Nc1nc2ccccc2n1CCN1CCOCC1)c1ccccc1`, the AC50 is > 100 µM (inactive). Under setting [1], `c1ccc(CSCc2ccccc2)cc1` displayed an AC50 greater than 100 µM. For `CC(C)(C)CC(=O)Nc1ccccc1N1CCN(c2ccccc2)CC1`, the AC50 was > 100 µM (inactive). With `COc1cc2c(c(OC)c1OC)C(c1ccc3c(c1)OCO3)CC(=O)O2` (stereo not given), the AC50 was > 100 µM (inactive). This compound had an AC50 under setting [2] greater than 100 µM. The like results for `COc1ccccc1-c1cc2nc(NCCc3ccncc3)ccn2n1` were, in that order, > 100 µM (inactive) and greater than 100 µM. Consider `O=C(O)c1ccc(Oc2ccc([N+](=O)[O-])cc2)c([N+](=O)[O-])c1`, for which the AC50 was > 100 µM (inactive). As for `O=C(Nc1ccccc1Cl)c1ccc2c(c1)N(Cc1ccc(F)cc1)C(=O)CS2=O` (stereo not given), the AC50 is > 100 µM (inactive).

Turning to `C=C1c2cc3c(cc2NC(=S)N1Cc1ccccc1)OCO3`, the AC50 under setting [2] was greater than 100 µM. As to `O=C(CN1CCN(S(=O)(=O)c2ccc(Cl)cc2)CC1)Nc1ccc2c(c1)CCC2`, the AC50 is > 100 µM (inactive). `C[C@H]1CN([C@@H](C)CO)C(=O)CCCn2nncc2CO[C@@H]1CN(C)Cc1ccccc1C(F)(F)F` came in with an AC50 under setting [2] greater than 100 µM and a concentration at half-maximal activity (AC50) under setting [1] of 6.94 µM. In the case of `O=c1[nH]c(C2CCN(S(=O)(=O)c3ccc4c(c3)OCCO4)CC2)nc2c1nnn2Cc1ccccc1F`, the AC50 was > 100 µM (inactive). Moreover, the AC50 under setting [2] is greater than 100 µM.

Consider `CCn1c(-c2ccccc2Cl)nn(CC(=O)Nc2ccccc2OC)c1=S`, for which the AC50 is > 100 µM (inactive). As to `CCCCNC(=O)c1onc(CSc2cc(C)cc(C)c2)c1C(=O)O`, the AC50 was > 100 µM (inactive). Moreover, the AC50 under setting [2] came out at 37.3 µM. For the compound `Cc1ccc(CC2C(=O)N(c3cc(Cl)ccn3)C(=O)C2C)cc1` (stereo not given), the AC50 was > 100 µM (inactive).

Regarding `O=C(Nc1cccnc1)c1ccc([N+](=O)[O-])o1`, the AC50 is > 100 µM (inactive). Under setting [2], this compound yielded a concentration at half-maximal activity (AC50) greater than 100 µM. The corresponding values for `COc1ccc(Oc2ccc(C(F)(F)F)cc2NC(=O)CC(CC(=O)O)c2ccccc2)cc1` (stereo not given) are > 100 µM (inactive) and greater than 100 µM. `CCOC(=O)C1(CCCc2ccccc2)CCN(C(=O)CCn2cncn2)CC1`: the AC50 is > 100 µM (inactive). On to `COc1ccc(CNC(=O)c2sc3nc4c(c(C(F)(F)F)c3c2N)CCC4)cc1OC`, for which the half-maximal activity concentration (AC50) under setting [1] was greater than 100 µM.

For `CC(=O)Nc1nc(C)c(-c2csc(Nc3ccccn3)n2)s1`, the AC50 is > 100 µM (inactive).
